Measured values from publication PMC3612894 (Journal of medicinal chemistry, 2013).

Tested on: T. cruzi
Test: T. cruzi in vitro inhibition assay
Type: cell-based, Trypanosoma cruzi
Conditions: host cells NIH 3T3

Q: Which “selectivity over host cells” value does the source give for Cc1cc(Oc2cccc(Cn3ccnc3)c2)cc(C)c1Cl [Compound 4c, 1-(3-(4-chloro-3,5-dimethylphenoxy)benzyl)-1H-imidazole] here?
A: greater than 160 fold

Q: For Clc1ccc(COc2cccc(Cn3ccnc3)c2)cc1 [Compound 4j, 1-(3-((4-chlorobenzyl)oxy)benzyl)-1H-imidazole], which “selectivity over host cells” value is on record?
A: greater than 160 fold
